Source: patent publication US20090264648A1, “SYNTHESIS OF PYRAZOLES” (WYETH, priority 2008, published 2009)
Entries after “also recorded” stand apart in the source; their conditions may differ. Counter-ions that a name gives are not always drawn. Like-named read-outs stand apart in the source and are kept apart here.

Experiments:
[1] = Hygroscopicity noted on isolation of the hydrochloride salt; assay type: physicochemical; conditions: salt precipitated from DCM with HCl in Et2O
Procedure: 5-(4-acetyl-[1,4]diazepan-1-yl)-pentanoic acid [5-(4-methoxy-phenyl)-1H-pyrazol-3-yl]-amide (1.05 g, 2.54 mmol) was dissolved in a minimum amount of DCM (5 mL) and cooled to 0° C. HCl (2.0 M in Et20, 1.4 mL, 2.89 mmol) was added and the mixture stirred at rt until precipitation of the salt was complete (about 10 min.). The solid was filtered, washed with Et2O several times, and dried in a dessicator to yield 1.09 g of the hydrochloride salt (2.42 mmol, 95% yield). […] MS (ES+): 414.26 (M+H)^+.

[2] = Hygroscopicity test / Dynamic Vapor Sorption (DVS) of hydrochloride salt crystal forms; assay type: physicochemical; conditions: for Water absorbed eventually: 90% RH
Procedure: Evidence of a hydrochloride hydrate was not observed after the hygroscopicity test.
Dynamic Vapor Sorption (DVS) was done at 25-26° C.

In the case of `COc1ccc(-c2cc(NC(=O)CCCCN3CCCN(C(C)=O)CC3)[nH]n2)cc1` (as salt: hydrochloric acid salt) [5-(4-Acetyl-[1,4]diazepan-1-yl)-pentanoic acid [5-(4-methoxy-phenyl)-2H-pyrazol-3-yl]-amide], the melting point is reported as 185 °C.

For `COc1ccc(-c2cc(NC(=O)CCCCN3CCCN(C(C)=O)CC3)n[nH]2)cc1.Cl` [Compound I, 5-(4-acetyl-1,4-diazepan-1-yl)-N-(5-(4-methoxyphenyl)-1H-pyrazol-3-yl)pentanamide hydrogen chloride], the “Hygroscopicity of the sample” value [1] was “extreme hygroscopicity” and the melting point was 132 to 133 °C.

With `COc1ccc(-c2cc(NC(=O)CCCCN3CCCN(C(C)=O)CC3)[nH]n2)cc1` [Crystal Form V, 5-(4-Acetyl-[1,4]diazepan-1-yl)-pentanoic acid [5-(4-methoxy-phenyl)-2H-pyrazol-3-yl]-amide] the “Hygroscopicity (in words), Crystal Form Table” value [2] was “Hygroscopic” and the “Water at RH 50%” value [2] was 7%.

In the case of `COc1ccc(-c2cc(NC(=O)CCCCN3CCCN(C(C)=O)CC3)[nH]n2)cc1` [Form I, 5-(4-acetyl-1,4-diazepan-1-yl)-N-(5-(4-methoxyphenyl)-1H-pyrazol-3-yl)pentanamide hydrochloric salt Form I], the “Behaviour of absorbed water on decreasing RH” value [2] is reported as “loses it without significant hysteresis on decreasing RH; also recorded: loses the water as RH decreases”, the “Evidence of a hydrochloride hydrate after the hygroscopicity test” value [2] is reported as “not observed” and the “Hygroscopicity (in words)” value [2] is reported as “relatively non-hygroscopic”. The Moisture gained ([2]; 70-100% RH) was “at least 2%”, the Water absorbed eventually ([2]; DVS at 25-26° C.) was “up to 2%” and the “Relative humidity (RH) at which the form picks up moisture” value ([2]; DVS at 25-26° C.) was “about 50%”. For the same compound, the “Moisture gained when equilibrated” value ([2]; RH less than or equal to 70%) was “about 0.5%” and the “Hygroscopicity (in words), Crystal Form Table” value ([2]; listed as Crystal Form I) was “Non-hygroscopic”.

For `COc1ccc(-c2cc(NC(=O)CCCCN3CCCN(C(C)=O)CC3)[nH]n2)cc1` [Form II, 5-(4-acetyl-1,4-diazepan-1-yl)-N-(5-(4-methoxyphenyl)-1H-pyrazol-3-yl)pentanamide hydrochloric salt Form II], the “Hygroscopicity (in words)” value [2] was “non-hygroscopic”, the Water absorbed eventually ([2]; DVS at 25-26° C.) was “up to 7%” and the “Relative humidity (RH) at which the form picks up moisture” value ([2]; DVS at 25-26° C.) was “about 20%”. The “Water held at low RH” value ([2]; RH 0%, DVS at 25-26° C.) was 2%, the “Water at RH 50%” value ([2]; listed as Crystal Form II) was “hygroscopic (5%” and the “Hygroscopicity (in words), Crystal Form Table” value ([2]; listed as Crystal Form II) was “Somewhat”.

For `COc1ccc(-c2cc(NC(=O)CCCCN3CCCN(C(C)=O)CC3)[nH]n2)cc1` [Form III, 5-(4-Acetyl-[1,4]diazepan-1-yl)-pentanoic acid [5-(4-methoxy-phenyl)-2H-pyrazol-3-yl]-amide], the “Hygroscopicity (in words), Crystal Form Table” value ([2]; listed as Crystal Form III) was “Hygroscopic”.
